Measurements taken from patent publication US20050070570A1, “Novel potassium channels modulators” (4SC AG, priority 2003, published 2005).

Biological target: BK channels (CHO cells permanently transfected with cloned hSlo, α-hSlo and β-bSlo) (Homo sapiens, UniProt Q12791)
Assay: Em-Assay: fluorescence membrane potential assay with voltage sensitive dye DiBAC(4)3
Assay type: cell-based
Details: ratio of the compound effect (50 μM) compared to the maximal effect of NS004 (25 or 50 μM)
Excerpt: The large conductance, voltage-dependent and Ca^2+-activated potassium channel BK is a potassium selective ion channel and belongs to the subfamily of KCa channels. Four BK alpha-subunits form a functional channel that can be regulated by intracellular Ca^2+ concentration, membrane voltage, and other mechanisms like phosphorylation states or beta subunits. To test the biological activity of the compounds, we applied two different techniques, a fluorescence based assay using a voltage sensitive dye (Em-Assay) as well as exploiting electrophysiological methods.
CHO cells permanently transfected with cloned hSlo (α-hSlo and β-bSlo), yielding typical BK potassium currents (Zhou et al., Pflügers Arch., 436: 725-734 (1998), were used for the evaluation of compound activity. Activation or inhibition of BK channels in these cells leads to a change of the electrochemical gradient causing a hyperpolarized or depolarised membrane potential, respectively.
To determine changes in the membrane potential of the cells we used the voltage sensitive dye DiBaC(4)3 (Molecular Probes) in a kinetic assay system using a fluorescent plate reader (Manning and Sontheimer, J. Neurosci. Meth., 91: 73-81 (1999). The anionic bis-oxonol DiBAC(4)3 is a voltage sensitive dye which partitions from the extracellular environment into the cell where it reversibly binds to intracellular proteins, a kinetic process depending on the membrane potential of the cell. At depolarised potentials (i.e. at a reduced K^+ efflux due to blocked K^+ channels) the dye accumulates in the cell leading to an increased fluorescence intensity, due to its increased fluorescence if bound to cellular proteins. At hyperpolarized potentials (i.e. at an increased K^+ efflux due to the opening of K^+ channels), the dye partitions out of the cell causing a decreased fluorescence intensity.
hslo transfected CHO cells where maintained in DMEM supplemented with 10% FCS, 250 μg/ml Geneticin, 100 μg/m Hygromycin, 1×HT-Supplement, and 1×Non-essential Amino Acids and cultured in a humidified CO2 incubator. After trypsination, cells where plated with a density of 5×10^4 cells per well on a clear 96-well plate and incubated for 24 h. Cells where washed once with PBS, once with PBS containing 20 mM HEPES (adjusted to pH 7.4 with NaOH) and 2 μM DiBAC(4)3 (DPBS-DiBAC solution). 180 μl of the dPBS-DiBAC solution was then added to the cells and the plate incubated for 30-60 min at 37° C. During this time the dye could partition into the cells and reach a certain steady-state distribution, depending on the resting membrane potential. Test and reference compounds were stored as DMSO stock solutions and diluted in dPBS-DiBAC solution to the desired concentration.
Fluorescence intensity (Ex.: 485 nm/Em.: 520 nm) of each well was detected in the plate reader (Fluostar, BMG) every 60 seconds. After recording the baseline fluorescence for 7 minutes, 20 μl test- and reference compounds were added and the fluorescence intensity was detected for additional 15 minutes. Background was subtracted, data values were normalized and expressed as a change in fluorescence intensity against time. The change in fluorescence intensity caused by the test compounds was evaluated, compared to the effect of the reference compound NS004, and the ratio was determined (see Table I).

Chain of BK channels (CHO cells permanently transfected with cloned hSlo, α-hSlo and β-bSlo) (Q12791 whole entry): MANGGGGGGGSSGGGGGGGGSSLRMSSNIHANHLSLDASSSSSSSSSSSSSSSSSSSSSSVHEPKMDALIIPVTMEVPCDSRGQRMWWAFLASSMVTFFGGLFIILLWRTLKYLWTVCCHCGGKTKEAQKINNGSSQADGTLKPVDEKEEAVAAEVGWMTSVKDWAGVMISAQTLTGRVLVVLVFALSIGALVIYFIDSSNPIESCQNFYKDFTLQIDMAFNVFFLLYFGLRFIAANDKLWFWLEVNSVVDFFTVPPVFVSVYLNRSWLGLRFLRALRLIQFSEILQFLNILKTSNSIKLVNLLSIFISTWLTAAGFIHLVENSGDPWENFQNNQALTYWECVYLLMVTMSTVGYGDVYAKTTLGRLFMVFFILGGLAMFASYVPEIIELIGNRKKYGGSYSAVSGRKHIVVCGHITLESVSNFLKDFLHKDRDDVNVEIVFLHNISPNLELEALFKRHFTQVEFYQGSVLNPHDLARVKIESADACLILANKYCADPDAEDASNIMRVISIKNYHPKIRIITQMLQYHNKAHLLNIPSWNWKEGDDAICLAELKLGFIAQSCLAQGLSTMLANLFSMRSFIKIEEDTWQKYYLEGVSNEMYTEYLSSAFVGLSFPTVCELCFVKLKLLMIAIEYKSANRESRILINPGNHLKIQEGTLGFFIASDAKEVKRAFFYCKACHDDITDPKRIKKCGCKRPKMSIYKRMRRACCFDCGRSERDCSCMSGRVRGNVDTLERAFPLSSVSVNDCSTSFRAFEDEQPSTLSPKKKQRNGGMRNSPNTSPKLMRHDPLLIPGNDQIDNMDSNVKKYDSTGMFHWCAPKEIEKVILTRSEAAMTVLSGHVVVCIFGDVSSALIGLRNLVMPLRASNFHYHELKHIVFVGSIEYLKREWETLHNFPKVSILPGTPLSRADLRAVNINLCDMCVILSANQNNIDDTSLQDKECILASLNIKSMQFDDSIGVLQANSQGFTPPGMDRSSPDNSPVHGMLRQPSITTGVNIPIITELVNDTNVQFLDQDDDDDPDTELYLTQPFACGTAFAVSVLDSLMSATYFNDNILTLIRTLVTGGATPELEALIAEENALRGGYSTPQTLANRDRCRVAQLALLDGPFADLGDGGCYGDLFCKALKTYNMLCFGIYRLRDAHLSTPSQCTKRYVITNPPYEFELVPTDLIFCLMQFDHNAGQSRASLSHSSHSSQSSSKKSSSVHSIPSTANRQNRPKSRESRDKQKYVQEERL
Chain of BK channels (CHO cells permanently transfected with cloned hSlo, α-hSlo and β-bSlo) (Q28067 whole entry partner): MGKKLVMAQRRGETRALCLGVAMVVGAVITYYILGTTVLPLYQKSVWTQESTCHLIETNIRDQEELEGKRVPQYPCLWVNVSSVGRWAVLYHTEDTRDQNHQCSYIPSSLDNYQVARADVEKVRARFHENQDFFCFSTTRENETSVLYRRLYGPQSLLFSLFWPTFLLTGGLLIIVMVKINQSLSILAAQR

| Em effect | SMILES |
| --- | --- |
| + (0-1=+) | COc1cc2c(c(OC)c1)C(c1ccc(O)cc1)N(C(=O)c1cccc3ccccc13)CC2 (centres unmarked) [Compound 17, [1-(4-Hydroxy-phenyl)-6,8-dimethoxy-3,4-dihydro-1H-isoquinolin-2-yl]-naphthalen-1-yl-methanone] |
| + (0-1=+) | COc1cc2c(c(OC)c1)C(c1ccc(O)cc1)N(C(=O)c1cccc(C(F)(F)F)c1)CC2 (centres unmarked) [Compound 18, [1-(4-Hydroxy-phenyl)-6,8-dimethoxy-3,4-dihydro-1H-isoquinolin-2-yl]-(3-trifluoromethyl-phenyl)-methanone] |
| + (0-1=+) | COc1cc2c(c(OC)c1)C(c1ccc(O)cc1)N(C(=O)C1CCCC1)CC2 (centres unmarked) [Compound 19, Cyclopentyl-[1-(4-hydroxy-phenyl)-6,8-dimethoxy-3,4-dihydro-1H-isoquinolin-2-yl]-methanone] |
| + (0-1=+) | COc1cc2c(c(OC)c1)C(c1ccc(O)cc1)N(C(=O)c1ccc(C(F)(F)F)cc1)CC2 (centres unmarked) [Compound 20, [1-(4-Hydroxy-phenyl)-6,8-dimethoxy-3,4-dihydro-1H-isoquinolin-2-yl]-(4-trifluoromethyl-phenyl)methanone] |
| +++ (>1.5=+++) | COc1cc2c(c(OC)c1)C(c1ccc(O)cc1)N(C(=O)CCC1CCCC1)CC2 (centres unmarked) [Compound 21, 3-Cyclopentyl-1-[1-(4-hydroxy-phenyl)-6,8-dimethoxy-3,4-dihydro-1H-isoquinolin-2-yl]-propan-1-one] |
| + (0-1=+) | COc1ccc(C(=O)N2CCc3cc(OC)cc(OC)c3C2c2ccc(O)cc2)cc1 (centres unmarked) [Compound 22, [1-(4-Hydroxy-phenyl)-6,8-dimethoxy-3,4-dihydro-1H-isoquinolin-2-yl]-(4-methoxy-phenyl)-methanone] |
| + (0-1=+) | COc1cc2c(c(OC)c1)C(c1ccc(O)cc1)N(C(=O)CCC1CCCCC1)CC2 (centres unmarked) [Compound 23, 3-Cyclohexyl-1-[1-(4-hydroxy-phenyl)-6,8-dimethoxy-3,4-dihydro-1H-isoquinolin-2-yl]-propan-1-one] |
| + (0-1=+) | COc1cc2c(c(OC)c1)C(c1ccc(O)cc1)N(C(=O)c1sc3ccccc3c1Cl)CC2 (centres unmarked) [Compound 24, (3-Chloro-benzo[b]thiophen-2-yl)-[1-(4-hydroxy-phenyl)-6,8-dimethoxy-3,4-dihydro-1H-iso-quinolin-2-yl]-methanone] |
| + (0-1=+) | COc1cc2c(c(OC)c1)C(c1ccc(O)cc1)N(C(=O)c1cccs1)CC2 (centres unmarked) [Compound 25, [1-(4-Hydroxy-phenyl)-6,8-dimethoxy-3,4-dihydro-1H-iso-quinolin-2-yl]-thiophen-2-yl-methanone] |
| + (0-1=+) | COc1cc2c(c(OC)c1)C(c1ccc(O)cc1)N(C(=O)c1ccc3c(c1)OCO3)CC2 (centres unmarked) [Compound 26, Benzo[1,3]dioxol-5-yl-[1-(4-hydroxy-phenyl)-6,8-dimethoxy-3,4-dihydro-1H-isoquinolin-2-yl]-methanone] |

The remaining lines, values behind:

| SMILES | Em effect |
| --- | --- |
| COc1ccc(C(=O)N2CCc3cc(OC)cc(OC)c3C2c2ccc(-c3ccccc3)cc2)cc1 (centres unmarked) [Compound 1, (1-Biphenyl-4-yl-6,8-dimethoxy-3,4-dihydro-1H-isoquinolin-2-yl)-(4-methoxy-phenyl)-methanone] | + (0-1=+) |
| COc1cc2c(c(OC)c1)C(c1ccc(-c3ccccc3)cc1)N(C(=O)c1ccc([N+](=O)[O-])cc1)CC2 (centres unmarked) [Compound 2, (1-Biphenyl-4-yl-6,8-dimethoxy-3,4-dihydro-1H-isoquinolin-2-yl)-(4-nitro-phenyl)-methanone] | + (0-1=+) |
| COc1cc2c(c(OC)c1)C(c1ccc(-c3ccccc3)cc1)N(C(=O)c1cccc(Br)c1)CC2 (centres unmarked) [Compound 3, (1-Biphenyl-4-yl-6,8-dimethoxy-3,4-dihydro-1H-isoquinolin-2-yl)-(3-bromo-phenyl) methanone] | + (0-1=+) |
| COc1cc2c(c(OC)c1)C(c1ccc(-c3ccccc3)cc1)N(C(=O)c1ccc(C(F)(F)F)cc1)CC2 (centres unmarked) [Compound 4, (1-Biphenyl-4-yl-6,8-dimethoxy-3,4-dihydro-1H-isoquinolin-2-yl)-(4-trifluoromethylphenyl)-methanone] | + (0-1=+) |
| COc1cc2c(c(OC)c1)C(c1ccc(-c3ccccc3)cc1)N(C(=O)c1ccc(C(F)(F)F)cc1F)CC2 (centres unmarked) [Compound 5, (1-Biphenyl-4-yl-6,8-dimethoxy-3,4-dihydro-1H-isoquinolin-2-yl)-(2-fluoro-4-trifluoromethyl-phenyl)-methanone] | + (0-1=+) |
| COc1cc2c(c(OC)c1)C(c1ccc(-c3ccccc3)cc1)N(C(=O)c1ccc(C(C)(C)C)cc1)CC2 (centres unmarked) [Compound 6, (1-Biphenyl-4-yl-6,8-dimethoxy-3,4-dihydro-1H-isoquinolin-2-yl)-(4-tert-butyl-phenyl)-methanone] | + (0-1=+) |
| COc1cc2c(c(OC)c1)C(c1ccc(-c3ccccc3)cc1)N(C(=O)c1ccc(OC(F)(F)F)cc1)CC2 (centres unmarked) [Compound 7, (1-Biphenyl-4-yl-6,8-dimethoxy-3,4-dihydro-1H-isoquinolin-2-yl)-(4-trifluoromethoxy-phenyl)-methanone] | + (0-1=+) |
| COc1cc2c(c(OC)c1)C(c1ccc(-c3ccccc3)cc1)N(C(=O)c1cc(C(F)(F)F)cc(C(F)(F)F)c1)CC2 (centres unmarked) [Compound 8, (1-Biphenyl-4-yl-6,8-dimethoxy-3,4-dihydro-1H-isoquinolin-2-yl)-(3,5-bis-trifluoromethyl-phenyl)methanone] | + (0-1=+) |
| COc1cccc(C(=O)N2CCc3cc(OC)cc(OC)c3C2c2ccc(O)cc2)c1 (centres unmarked) [Compound 9, [1-(4-Hydroxy-phenyl)-6,8-dimethoxy-3,4-dihydro-1H-isoquinolin-2-yl]-(3-methoxy-phenyl)-methanone] | + (0-1=+) |
| COc1cc2c(c(OC)c1)C(c1ccc(O)cc1)N(C(=O)CCCCBr)CC2 (centres unmarked) [Compound 10, 5-Bromo-1-[1-(4-hydroxy-phenyl)-6,8-dimethoxy-3,4-dihydro-1H-isoquinolin-2-yl]-pentan-1-one] | + (0-1=+) |
| COc1cc2c(c(OC)c1)C(c1ccc(O)cc1)N(C(=O)c1cccc(OC(F)(F)F)c1)CC2 (centres unmarked) [Compound 11, [1-(4-Hydroxy-phenyl)-6,8-dimethoxy-3,4-dihydro-1H-isoquinolin-2-yl]-(3-trifluoromethoxy-phenyl)-metanone] | + (0-1=+) |
| COc1cc2c(c(OC)c1)C(c1ccc(O)cc1)N(C(=O)CCc1ccccc1)CC2 (centres unmarked) [Compound 12] | + (0-1=+) |
| COc1cc2c(c(OC)c1)C(c1ccc(O)cc1)N(C(=O)c1ccccc1OC(F)(F)F)CC2 (centres unmarked) [Compound 13] | + (0-1=+) |
| COc1cc2c(c(OC)c1)C(c1ccc(O)cc1)N(C(=O)c1ccc(C(C)(C)C)cc1)CC2 (centres unmarked) [Compound 14, (4-tert-Butyl-phenyl)-[1-(4-hydroxy-phenyl)-6,8-dimethoxy-3,4-dihydro-1-H-isoquinolin-2-yl]-methanone] | + (0-1=+) |
| COc1cc2c(c(OC)c1)C(c1ccc(O)cc1)N(C(=O)c1ccc(-c3ccccc3)cc1)CC2 (centres unmarked) [Compound 15, Biphenyl-4-yl-[1-(4-hydroxy-phenyl)-6,8-dimethoxy-3,4-dihydro-1H-isoquinolin-2-yl]-methanone] | + (0-1=+) |
| COc1cc2c(c(OC)c1)C(c1ccc(O)cc1)N(C(=O)c1cnc3ccccc3n1)CC2 (centres unmarked) [Compound 16, [1-(4-Hydroxy-phenyl)-6,8-dimethoxy-3,4-dihydro-1H-isoquinolin-2-yl]-quinoxalin-2-yl-methanone] | + (0-1=+) |
